Tests used:
Candida auris AR-0381 = assay: EPA MLB SOP MB-35-00 stainless steel carrier disinfection with ILPS (Example 5); format: cell-based
microbial growth = assay: Reduction in microbial growth; format: cell-based; conditions: potassium hexadiene at pH 9

potassium salt of isomerized linoleic acid [ILCS]
kill (Candida auris AR-0381; 2-minute immersion, carriers inoculated with 6-8 log yeast): 100% | colonies recovered from treated carries (Candida auris AR-0381; undiluted ILPS, 10 minutes, seven carries, untreated 7.1-7.2 log10 CFU): no colonies | reduction in microbial growth (microbial growth): 8-10 log reduction
